Tests used:
[1] = system: cell line HeLa (cervix carcinoma, human); assay: MTT cytotoxicity test, HeLa cells; conditions: 48 h, read-out: HeLa IC50 after 48h
bovine diarrhea virus = bovine diarrhea virus as counterpart of hepatitis virus C; cited from earlier work

Compound | IC50 [1] [µM] | selectivity index (SI) (bovine diarrhea virus)
COP(=O)(OC)C1C(=O)c2cc3c(cc2C1c1ccccc1)OCO3 (stereo not drawn) [Compound 1a, 2-phosphoryl-3-phenyl substituted 1-indanone] | 90 | 
COc1cc(OC)c2c(c1)C(=O)CC2c1ccc(Br)cc1 (stereo not drawn) [Compound 3a, 3-(para-bromophenyl) substituted 1-indanone] | 60 | 
NC(=O)c1ncn([C@@H]2O[C@H](CO)[C@@H](O)[C@H]2O)n1 [ribavirin] |  | 11.64

From patent publication EP3072511A1, “The medical use of 3-aryl substituted 1-indanones” (Centrum Badan Molekularnych I Makromolekularnych Polskiej …, priority 2013, dated 2016)
